Experimental data taken from patent US10478437B2, “Combination therapy to enhance the anticancer efficacy of platinum drugs” (University of Pittsburgh-of the Commonwealth System of …, priority 2014, dated 2019).

Assays:
A2780cis cells [1] = experiment: Short-term (3 h) exposure, cell survival by CellTiter-Blue after 48 h in compound free media; format: cell-based, human; conditions: 20 μM compound with various doses of cisplatin, viability after two days, in words
Method: FIG. 5. Short-term exposure of A2780cis cells to the combination of cisplatin and compound 1-6 dramatically reduces cell survival. A2780cis cells were treated with increasing doses of cisplatin alone or the combination of cisplatin with compound 1-6 (20 μM) for 3 h. The compounds were then washed out. Cell survival was determined after 48 h incubation of cells in compound free media by CellTiter-Blue assay.
Further analysis was performed with compound 1-6. […] This synergism for the combination of cisplatin and 1-6 was further confirmed using a fresh sample of high chemical purity (98%). This synergistic effect was also observed using the CellTiter-Blue cell viability assay (FIG. 5) under an alternative exposure strategy that mimics in viva drug administration to test the combination effect. Considering the clearance of cisplatin over the time and the duration of exposure of tumor cells to the effective doses of the drugs in vivo (Los et al., 1989), a short-term exposure of cells to the combination of 20 μM of 1-6 with various doses of cisplatin was tested, followed by cell viability assay after two days.

A2780cis cells [2] = experiment: Extracellular flux analysis, oxygen consumption rate (OCR), Seahorse XF24; format: cell-based, human; conditions: compound 50 μM + cisplatin 50 μM, 4 h, FIG. 8B; in words
Method: Oxygen consumption rate (OCR) and extracellular acidification rate (ECAR) were measured as previously described (Qian and Van Houten, 2010). Cells were seeded in XF24 cell culture plates at 4×10^4 cells/well and incubated in 5% CO2 at 37° C. Prior to the analysis, cells were washed and growth medium was replaced with bicarbonate-free modified RPMI 1640 medium, the “assay medium” (Molecular Devices, Sunnyvale, Calif.). Cells were then incubated for another 60 min in a 37° C. incubator without CO2. OCR and ECAR measurements were then performed simultaneously using a Seahorse XF24 Extracellular Flux Analyzer (Seahorse Bioscience, North Billerica, Mass.).
To determine the effects of the compounds on DNA damage and mitochondrial dysfunction, A2780cis cells were treated with cisplatin (20 μM) alone or the combination of cisplatin with 20 μM of compound 1-6. Replication protein A (RPA) is a single strand-specific DNA-binding protein, consisting of three subunits, RPA70, RPA32, and RPA14. RPA32 is phosphorylated in response to DNA replication stress. Western blot analysis was performed to evaluate the phosphorylation of RPA32 and histone H2AX, the induction of Noxa expression and cleavage of caspase-3. […] The oxygen consumption rate (OCR) was measured by a Seahorse extracellular flux analyzer.

[3] = tested on: Bax/Bak wildtype (WT) and double knockout (DKO) MEF cells; experiment: Western blot of Caspase-8, 9 and 3 cleavage in Bax/Bak WT and DKO cells; format: cell-based, mouse; conditions: compound 20 μM + cisplatin 10 μM, 20 h, FIG. 8C; in words
Method: Whole cell lysate was prepared by lysing cells in cell lysis buffer (Cell signaling technology) containing complete protease inhibitor (Roche). Cell lysates were then cleared at 15,000 rpm for 15 min at 4° C. The protein content was quantified using a Bio-Rad Protein Assay kit (Bio-Rad Laboratories, Hercules, Calif.). The equal amount of protein was separated on Tris-glycine gels (Invitrogen). The separated proteins were blotted onto a polyvinylidene difluoride membrane and blocked overnight at 4° C. in phosphate-buffered saline containing 0.1% Tween 20 and 10% nonfat dry milk (blocking buffer). Membranes were incubated with primary antibodies in blocking buffer overnight at 4° C. Primary antibodies used were: β-actin from Sigma; Bax, Bak, Caspase-9 and cleaved Caspase-3 from Cell Signaling Technology; phospho-Histone H2AX (Ser 139) and Noxa from Millipore. Membranes were then washed and incubated in peroxidase conjugated anti-rabbit IgG (Sigma) or anti-mouse IgG (Sigma) secondary antibody for 1 h at room temperature. Membranes were developed using SuperSignal West Femto Maximum Sensitivity Substrate (Thermo Fisher Scientific).
In order to understand the role of Bax and Bak in the efficacy of cisplatin and compound 1-6, Bax/Bak double knockout (DKO) SV40-transformed MEF cells were used. […] The cleavage of Caspase-8, 9, and 3 were determined by western blot.

SMILES: CCOCCCn1c(=S)[nH]c2c(C)cccc2c1=O [Compound 1-6]
- effect of 3 hr exposure to the combination with cisplatin on proliferation (A2780cis cells [1]): severe long-term proliferation defect
- mitochondrial function (OCR, response to oligomycin) after combination with cisplatin (A2780cis cells [2]): uncoupling of mitochondria was observed
- cleavage of caspases in Bax/Bak WT and DKO MEF cells, combination with cisplatin [3]: cleavage of Caspase 3 and 9 independent of Bax or Bak activity
